Measurements as given in patent US6900041B2, “Methods and compositions for the treatment of inflammatory diseases” (Reddy US Therapeutics Inc., priority 2000, dated 2005).

Columns and labels:
Format in all cases: cell-based, human
[1] = test system: GSK-3β promoter; test: GSK-3β promoter-luciferase reporter assay in transfected BAEC; settings: TNFα 10 ng/ml, 24-48 hours
Procedure: pGL3-GSK3B−1478/+534 was transfected into bovine aortic endothelial cells (BAEC) by electroporation. Transfected cells were aliquoted into 96 well plates and allowed to recover in full media for 16-24 hours. […] Luciferase activity was measured in cell lysates using Bright-Glo Luciferase Assay System (Promega).

[2] = test system: VCAM-1 expression; test: VCAM-1 ELISA on endothelial cell monolayers; settings: 24 h
Procedure: HMVEC cells were treated with control medium or medium containing 10 ng/ml TNFα or 100 μg/ml glycated-HSA for 24 hrs. All treatments and controls were carried out in serum free media containing 0.2% albumin. Following treatment, cell media were collected and used for IL-6, MCP-1 ELISA and cells were used for VCAM-1 ELISA which was conducted in situ without lysis. Inhibition of GSK-3β altered inflammation-related adhesion molecule expression. VCAM-1 is an endothelial adhesion molecule that facilitates monocyte infiltration into the blood vessel (3). Cells were treated as described in Example 2. Endothelial cells were exposed to KCl (10 mM, as a control) or with TNFα (10 ng/ml); LiCl (10 mM) alone and with TNFα (10 ng/ml), insulin (1 nM) alone or with TNFα (10 ng/ml). Following incubation for 24 h, […] assayed for VCAM-1 by ELISA. VCAM-1 ELISA was performed on monolayers of endothelial cells in 96 well plates. Wells were incubated with 100 μl of 1:1000 dilution of primary antibody (polyclonal goat anti-human VCAM-1 from R&D Systems) in medium containing 10% FBS. A rabbit anti-goat IgG-HRP was used as secondary antibody and ELISA was performed as described for MCP-1 above.

[3] = test system: IL-6 production by endothelial cells; test: IL-6 ELISA of endothelial cell media
Procedure: Human aortic (HAEC) and microvascular (HMVEC) endothelial cells (Clonetics) were cultured and subcultured according to manufacturer in growth medium (Clonetics): basal medium containing hEGF, hydrocortisone, VEGF, HFGF-B (w/heparin), long R3-IGF-1, Ascorbic acid, gentamicin/amphotericin and 5% FBS. These cell were allowed to reach >90% confluency before being subjected to experimental treatments. […] Tumor necrosis factor α was from R&D Systems. Cells were incubated with 20 mM lithium (as LiCl or with 20 mM KCl as control) in the presence or absence of TNFα (10 ng/ml). Insulin (1 nM) was also used to inhibit GSK-3β.
HMVEC cells were treated with control medium or medium containing 10 ng/ml TNFα or 100 μg/ml glycated-HSA for 24 hrs. All treatments and controls were carried out in serum free media containing 0.2% albumin. […]
IL-6 ELISA was carried out using human IL-6 DuoSet ELISA development kit as described by manufacturer (R&D Systems). […] Color development was read at 450 nm in a microplate reader. […]
Following 24 h transfection, the cells were incubated for 24 h with medium alone or medium containing 300 μg/ml glycated albumin (AGE) or medium containing 10 ng/ml TNF-α. IL-6 and MCP-1 were determined by ELISA, as shown in Examples 2 and 3.
Empty vectors or vectors carrying alkaline phosphatase were used as controls. […] IL-6 and MCP-1 were determined by ELISA as described in Examples 2 and 3.

[4] = test system: GSK-3β expression; test: GSK-3β immunoblotting (Western blot, densitometry) of endothelial cells; settings: 24 hours
Procedure: GSK-3β-immunoblotting analyses of endothelial cells treated with different inflammatory and non-inflammatory agents were performed.
Cells were treated as taught in Examples 1 and 2. Endothelial cells were incubated with an agent for 24 hours. […] After incubation, the cells were washed, lysed and separated by polyacrylamide gel electrophoresis. Western blotting was performed, using antibody directed to GSK-3β, and detected.

[5] = test system: GSK-3β expression; test: RT-PCR of GSK-3β in endothelial cells; settings: endothelial cells (HMVEC); TNFα 10 ng/ml or AGE 100 μg/ml; 8 hours; vs control
Procedure: HMVEC cells were treated with control medium or medium containing 10 ng/ml TNFα or 100 μg/ml glycated-HSA for 24 hrs. All treatments and controls were carried out in serum free media containing 0.2% albumin. Cells were collected into cold PBS using a cell scraper and used for RNA isolation.
Endothelial cells were incubated in media alone (control) or media containing TNFα (10 ng/ml) or AGE (100 μg/ml) for 8 hours. Poly (A) RNA was isolated and used as template for RT-PCR. Poly (A)+RNA was isolated from confluent cultures of HMVEC incubated under various conditions, using the Micropoly (A) pure kit (Ambion). RT-PCR with Superscript First-strand synthesis system (BRL) was performed according to the manufacture's instructions. […] 2: [sequence], representing a 406 bp region (from 519-925) in the coding sequence of GSK-3β (GSK-3β GenBank Accession No. L33801). […] PCR was carried out by using an initial denaturing step at 96° C. for 5 min, then cycle 35-times (or 25 times for quantitative RT-PCR) between 96° C. for 1 min, 58° C. for 45 sec, and 72° C. for 2 min. […] Samples (10 μl) were analyzed on a 1% agarose gel and stained with ethidium bromide and visualized by UV Tran illuminator (UIVP).

[6] = test system: MCP-1 production by endothelial cells; test: MCP-1 ELISA of endothelial cell media; settings: 24 h
Procedure: MCP-1 ELISA was carried out using Quantikine Human MCP-1 kit as described by manufacturer (R&D Systems). Mouse anti-human MCP-1 was used as the capture antibody and HRP-conjugated goat anti-human MCP-1 was used as the detection antibody. Culture media were incubated with capture antibody (in 96 well) for 2 h at room temperature. Wells were washed three times with wash buffer (0.05% Tween-20 in PBS followed by incubation with detection antibody for 2 h at room temperature. Color development was read at 450 nm in a microplate reader.
Endothelial cells, as grown in Example 1 and 2, were transfected with oligonucleotides using Cytofectin transfection reagent. […] IL-6 and MCP-1 were determined by ELISA, as shown in Examples 2 and 3.
Inhibition of GSK-3β led to […] inflammatory gene expression in endothelial cells. Overexpression of GSK-3β protein inhibited inducible inflammatory gene expression in endothelial cells. Full length GSK-3β cDNA was cloned into a retroviral vector pLIB. Empty vectors or vectors carrying alkaline phosphatase were used as controls. Retroviral particles carrying different genes were generated in HEK-293 cells. […] IL-6 and MCP-1 were determined by ELISA as described in Examples 2 and 3.

## TNFα
[1]
  decrease of GSK-3β promoter activity (luciferase): greater than 50%
[2]; TNFα 10 ng/ml alone
  VCAM-1 expression, % of basal levels: 340%
[3]; TNFα 10 ng/ml alone, 24 h
  increase in IL-6 secretion: greater than 10 fold
[3]; endothelial cells transduced with control vector
  induction of IL-6 expression: 10 fold
[4]; TNF-α 10 ng/ml, AGE 300 μg/ml, oxidized LDL 100 μg/ml, IL-1β 1 ng/ml
  decrease of GSK-3β expression: 70%
[5]
  intensity of the 406 bp GSK-3β RT-PCR band: decreased

## VEGF
[4]; VEGF 10 ng/ml
  induction of GSK-3β expression: ~2 fold

## insulin: known inhibitor of GSK-3β
[2]; agent alone (LiCl 10 mM, insulin 1 nM)
  effect on VCAM expression: did not significantly affect
[2]; insulin 1 nM together with TNFα 10 ng/ml, vs TNFα alone
  effect on TNFα-induced VCAM-1 expression: almost doubled the effect of TNFα alone
[6]; added together with AGE 300 μg/ml, LiCl 10 mM or insulin 1 nM
  increase of MCP-1: approximately 2.8 fold
[6]; agent alone (LiCl 10 mM, insulin 1 nM), vs 10 mM KCl (about 400 pg/ml)
  increase of MCP-1 secretion: about 50%
